Assay: Batch extraction from simulated HLLW from the PUREX process
Assay type: physicochemical
Settings: 0.1 mol/L in TPH/1-octanol (90:10)
Excerpt: The feed solution used for the extraction tests is a simulated solution of an HLLW from the PUREX process, the composition of which is shown in Table 4. Table 4: Composition of the simulated HLLW-PUREX solution used for the extraction tests
The composition of the HLLW corresponds to a burn-up of 33 GWd/tHM, the generated volume of HLLW being 5000 1/t of fuel. The feed was spiked with ^241Am, ^244Cm, ^252Cf and ^152Eu. Oxalic acid and N-(2-hydroxyethyl)ethylenediaminotriacetate (HEDTA) were also added before the extraction tests.
500 µL of the aqueous and organic phases were spiked with 10 µL of a tracer solution containing 241Am, 244Cm, 252Cf and ^152Eu, and were equilibrated for 10 minutes while they were stirred vigorously in a vortex stirrer. After the separation of the phases by centrifugation, 200 µL aliquots of each phase were taken for the determination of the concentration of ^241Am and ^152Eu using a high-purity germanium spectrometer system (EG&G Ortec). The nuclides ^241Am, ^244Cm and ^252Cf were measured by alpha spectrometry with an α-Analyst device of the company Canberra-Packard GmbH, Germany.
The concentrations of the stable elements were determined by mass spectrometry with an inductively coupled plasma source (ICP-MS) in a DRC Elan 6100 device of Perkin Elmer Sciex. The aqueous phase was measured directly after the appropriate dilution. The organic phase was analyzed after having mineralized the organic matter by microwave acid digestion and subsequent dilution.
The distribution coefficients were calculated for each element according to section C).
A 0.1 mol/L solution of compound 4 in the "TPH/1-octanol (90:10)%vol" mixture was prepared. Extraction experiments were carried out with said simulated HLLW in a pure form and also adding oxalic acid and HEDTA to it. These complexing agents have shown to be effective in the DIAMEX process for the complexing of Mo, Zr (H2C2O4) and Pd (HEDTA).
Extraction experiments were carried out with said simulated HLLW in a pure form and also adding oxalic acid and HEDTA to it.

[1] = Oxalic acid 0.2 mol/L, HEDTA 0.05 mol/L, TBP 0.5 mol/L
[2] = Oxalic acid 0.2 mol/L, HEDTA 0.05 mol/L, TBP No
[3] = Oxalic acid 0.3 mol/L, HEDTA 0.05 mol/L, TBP 0.5 mol/L
[4] = Oxalic acid 0.3 mol/L, HEDTA 0.05 mol/L, TBP No
[5] = Oxalic acid No, HEDTA No, TBP 0.5 mol/L
[6] = Oxalic acid No, HEDTA No, TBP No

2-Dioctylcarbamoylmethoxy-N-[3-[3-(2-dioctylcarbamoyl-methoxyacetylamino)propoxy]propyl]acetamide [Compound 18]
Distribution coefficients Ag [1]: 0.19 | Distribution coefficients Ba [1]: 0.0008 | Distribution coefficients Cd [1]: 0.022 | Distribution coefficients Ce [1]: 20 | Distribution coefficients Cf-252 [1]: 666 | Distribution coefficients Cm-244 [1]: 95 | Distribution coefficients Cs [1]: 0.0005 | Distribution coefficients Eu [1]: 309 | Distribution coefficients Eu-152 [1]: 282 | Distribution coefficients Gd [1]: 140 | Distribution coefficients La [1]: 12 | Distribution coefficients Mo [1]: 0.15 | Distribution coefficients Nd [1]: 69 | Distribution coefficients Pd [1]: 0.05 | Distribution coefficients Pr [1]: 32 | Distribution coefficients Rb [1]: 0.008 | Distribution coefficients Rh [1]: 0.003 | Distribution coefficients Ru [1]: 0.22 | Distribution coefficients Sm [1]: 284 | Distribution coefficients Y [1]: 631 | Distribution coefficients Zr [1]: 0.18 | Distribution coefficients Ag [2]: 0.5 | Distribution coefficients Ba [2]: 0.0008 | Distribution coefficients Cd [2]: 0.032 | Distribution coefficients Ce [2]: 24 | Distribution coefficients Cf-252 [2]: 511 | Distribution coefficients Cm-244 [2]: 85 | Distribution coefficients Cs [2]: 0.0004 | Distribution coefficients Eu [2]: 341 | Distribution coefficients Eu-152 [2]: 523 | Distribution coefficients Gd [2]: 197 | Distribution coefficients La [2]: 12 | Distribution coefficients Mo [2]: 0.21 | Distribution coefficients Nd [2]: 101 | Distribution coefficients Pd [2]: 0.10 | Distribution coefficients Pr [2]: 44 | Distribution coefficients Rb [2]: 0.008 | Distribution coefficients Rh [2]: 0.004 | Distribution coefficients Ru [2]: 0.21 | Distribution coefficients Sm [2]: 432 | Distribution coefficients Y [2]: 618 | Distribution coefficients Zr [2]: 0.51 | Distribution coefficients Ag [3]: 0.08 | Distribution coefficients Ba [3]: 0.0008 | Distribution coefficients Cd [3]: 0.024 | Distribution coefficients Ce [3]: 22 | Distribution coefficients Cf-252 [3]: 1353 | Distribution coefficients Cm-244 [3]: 164 | Distribution coefficients Cs [3]: 0.0004 | Distribution coefficients Eu [3]: 335 | Distribution coefficients Eu-152 [3]: 330 | Distribution coefficients Gd [3]: 146 | Distribution coefficients La [3]: 12 | Distribution coefficients Mo [3]: 0.19 | Distribution coefficients Nd [3]: 78 | Distribution coefficients Pd [3]: 0.02 | Distribution coefficients Pr [3]: 35 | Distribution coefficients Rb [3]: 0.008 | Distribution coefficients Rh [3]: 0.003 | Distribution coefficients Ru [3]: 0.23 | Distribution coefficients Sm [3]: 363 | Distribution coefficients Y [3]: 811 | Distribution coefficients Zr [3]: 0.06 | Distribution coefficients Ag [4]: 0.14 | Distribution coefficients Ba [4]: 0.0008 | Distribution coefficients Cd [4]: 0.034 | Distribution coefficients Ce [4]: 24 | Distribution coefficients Cf-252 [4]: 1451 | Distribution coefficients Cm-244 [4]: 163 | Distribution coefficients Cs [4]: 0.0006 | Distribution coefficients Eu [4]: 275 | Distribution coefficients Eu-152 [4]: 436 | Distribution coefficients Gd [4]: 196 | Distribution coefficients La [4]: 12 | Distribution coefficients Mo [4]: 0.19 | Distribution coefficients Nd [4]: 97 | Distribution coefficients Pd [4]: 0.04 | Distribution coefficients Pr [4]: 43 | Distribution coefficients Rb [4]: 0.008 | Distribution coefficients Rh [4]: 0.003 | Distribution coefficients Ru [4]: 0.18 | Distribution coefficients Sm [4]: 331 | Distribution coefficients Y [4]: 455 | Distribution coefficients Zr [4]: 0.13 | Distribution coefficients Ag [5]: 6.8 | Distribution coefficients Ba [5]: 0.0008 | Distribution coefficients Cd [5]: 0.015 | Distribution coefficients Ce [5]: 14 | Distribution coefficients Cf-252 [5]: 605 | Distribution coefficients Cm-244 [5]: 102 | Distribution coefficients Cs [5]: 0.0004 | Distribution coefficients Eu [5]: 299 | Distribution coefficients Eu-152 [5]: 393 | Distribution coefficients Gd [5]: 126 | Distribution coefficients La [5]: 8.5 | Distribution coefficients Mo [5]: 0.06 | Distribution coefficients Nd [5]: 49 | Distribution coefficients Pd [5]: 2.2 | Distribution coefficients Pr [5]: 24 | Distribution coefficients Rb [5]: 0.008 | Distribution coefficients Rh [5]: 0.003 | Distribution coefficients Ru [5]: 0.28 | Distribution coefficients Sm [5]: 234 | Distribution coefficients Y [5]: 1119 | Distribution coefficients Zr [5]: 16.5 | Distribution coefficients Ag [6]: 5.8 | Distribution coefficients Ba [6]: 0.0008 | Distribution coefficients Cd [6]: 0.021 | Distribution coefficients Ce [6]: 17 | Distribution coefficients Cf-252 [6]: 1352 | Distribution coefficients Cm-244 [6]: 165 | Distribution coefficients Cs [6]: 0.0004 | Distribution coefficients Eu [6]: 267 | Distribution coefficients Eu-152 [6]: 499 | Distribution coefficients Gd [6]: 160 | Distribution coefficients La [6]: 10 | Distribution coefficients Mo [6]: 0.09 | Distribution coefficients Nd [6]: 74 | Distribution coefficients Pd [6]: 1.7 | Distribution coefficients Pr [6]: 32 | Distribution coefficients Rb [6]: 0.008 | Distribution coefficients Rh [6]: 0.004 | Distribution coefficients Ru [6]: 0.24 | Distribution coefficients Sm [6]: 266 | Distribution coefficients Y [6]: 574 | Distribution coefficients Zr [6]: 9.1

Source: patent publication EP1923473B1, “Bis-diglycolamides (BISDGA) as new extractants for lanthanides [Ln(III)] and actinides [An(III)] from aqueous high-level wastes” (Universidad Autónoma de Madrid, priority 2006, dated 2008)
